From PubChem BioAssay AID256 (DTP/NCI, 2004)
Where “and” joins values, the source holds several entries; their conditions need not be identical. Equal values may be shown once. Inconclusive results and toxic doses are left out. How the source made its calls: active means survival T/C of 150% or more; inactive means T/C below 125% in these data.

Test system: CD2F1 mice, L1210 leukemia ip, survival T/C
Assay: NCI In Vivo Anticancer Drug Screen. Data for tumor model L1210 Leukemia (intraperitoneal) in CD2F1 (CDF1) mice
Settings: higher = longer survival
Summary of the method: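 Transplantable tumor in mice; compound-treated vs vehicle-treated groups. Read-out = treated/control ratio of the measured endpoint.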

[1] = endpoint: mean survival time, dose: 100.0 mg/kg/injection, schedule: Q04DX003 (ip), vehicle: saline with Tween-80
[2] = endpoint: mean survival time, dose: 200.0 mg/kg/injection, schedule: Q04DX003 (ip), vehicle: saline with Tween-80
[3] = endpoint: mean survival time, dose: 400.0 mg/kg/injection, schedule: Q04DX003 (ip), vehicle: saline with Tween-80
[4] = endpoint: mean survival time, dose: 100.0 mg/kg/injection, schedule: Q01DX001 (ip), vehicle: saline with Tween-80
[5] = endpoint: mean survival time, dose: 100.0 mg/kg/injection, schedule: Q01DX009 (ip), vehicle: saline with Tween-80
[6] = endpoint: mean survival time, dose: 200.0 mg/kg/injection, schedule: Q01DX001 (ip), vehicle: saline with Tween-80
[7] = endpoint: mean survival time, dose: 200.0 mg/kg/injection, schedule: Q01DX009 (ip), vehicle: saline with Tween-80
[8] = endpoint: mean survival time, dose: 400.0 mg/kg/injection, schedule: Q01DX009 (ip), vehicle: saline with Tween-80

Measured: T/C

COC(=O)CC(N)C(=O)O (stereo not drawn)
inactive: endpoint: median survival time, dose: 6.25 mg/kg/injection, schedule: Q01DX009 (ip), vehicle: saline 100 % of control | endpoint: median survival time, dose: 12.5 mg/kg/injection, schedule: Q01DX009 (ip), vehicle: saline 97 % of control | endpoint: median survival time, dose: 25.0 mg/kg/injection, schedule: Q01DX009 (ip), vehicle: saline 98 % of control | endpoint: median survival time, dose: 50.0 mg/kg/injection, schedule: Q01DX009 (ip), vehicle: saline 94 % of control | endpoint: median survival time, dose: 100.0 mg/kg/injection, schedule: Q01DX009 (ip), vehicle: saline 98 % of control | endpoint: median survival time, dose: 200.0 mg/kg/injection, schedule: Q01DX009 (ip), vehicle: saline 97 % of control

CCOC(=O)C[Si](C)(C)C
inactive: endpoint: mean survival time, dose: 25.0 mg/kg/injection, schedule: Q01DX005 (ip), vehicle: water 101 % of control | endpoint: mean survival time, dose: 50.0 mg/kg/injection, schedule: Q01DX005 (ip), vehicle: water 104 % of control | endpoint: mean survival time, dose: 100.0 mg/kg/injection, schedule: Q01DX005 (ip), vehicle: water 101 % of control | endpoint: mean survival time, dose: 200.0 mg/kg/injection, schedule: Q01DX005 (ip), vehicle: water 104 % of control | endpoint: mean survival time, dose: 400.0 mg/kg/injection, schedule: Q01DX005 (ip), vehicle: water 101 % of control

CC(=O)ON1C(=O)C2C3C=CC(O3)C2C1=O (stereo not drawn)
inactive: endpoint: mean survival time, dose: 12.5 mg/kg/injection, schedule: Q01DX009 (ip), vehicle: water 100 % of control | endpoint: mean survival time, dose: 25.0 mg/kg/injection, schedule: Q01DX009 (ip), vehicle: water 91 % of control | endpoint: mean survival time, dose: 50.0 mg/kg/injection, schedule: Q01DX009 (ip), vehicle: water 96 % of control

Cc1cccc(NC(=S)N(C)C)c1
inactive: [1] 104 % of control | [2] 102 % of control | [3] 94 % of control

COc1ccccc1OC(=O)Nc1ccc(C)c([N+](=O)[O-])c1
inactive: endpoint: mean survival time, dose: 25.0 mg/kg/injection, schedule: Q04DX003 (ip), vehicle: saline with Tween-80 96 % of control | endpoint: mean survival time, dose: 50.0 mg/kg/injection, schedule: Q04DX003 (ip), vehicle: saline with Tween-80 93 % of control | [1] 98 % of control and 103 % of control | [3] 97 % of control

CC(=O)N/N=C\C1=CCC=C(Br)S1
inactive: endpoint: mean survival time, dose: 50.0 mg/kg/injection, schedule: Q01DX009 (ip), vehicle: saline with Tween-80 107 % of control | [4] 93 % of control | [5] 107 % of control | [6] 102 % of control | [7] 116 % of control

CC(=O)NCc1cc(CNC(C)=O)c(C)cc1C
inactive: [5] 98 % of control | [1] 95 % of control | [7] 88 % of control | [2] 91 % of control | [8] 95 % of control | [3] 87 % of control

COc1ccc(NC(=O)Nc2ccccc2Cl)c(OC)c1
inactive: endpoint: mean survival time, dose: 25.0 mg/kg/injection, schedule: Q04DX002 (ip), vehicle: saline with Tween-80 94 % of control | endpoint: mean survival time, dose: 50.0 mg/kg/injection, schedule: Q04DX002 (ip), vehicle: saline with Tween-80 87 % of control | endpoint: mean survival time, dose: 100.0 mg/kg/injection, schedule: Q04DX002 (ip), vehicle: saline with Tween-80 102 % of control

COc1cc(C2CNCc3cc(O)c(OC)cc32)ccc1O (stereo not drawn)
inactive: endpoint: mean survival time, dose: 75.0 mg/kg/injection, schedule: Q01DX001 (ip), vehicle: saline 106 % of control | endpoint: mean survival time, dose: 150.0 mg/kg/injection, schedule: Q01DX001 (ip), vehicle: saline 102 % of control

O=C(CNC(=O)Nc1cccc([N+](=O)[O-])c1)NNC(=O)Nc1ccccc1F
inactive: [5] 88 % of control | [7] 88 % of control

Cc1ccc(-c2csc(/N=C/c3ccccc3O)n2)cc1
inactive: [4] 89 % of control | [6] 86 % of control | endpoint: mean survival time, dose: 400.0 mg/kg/injection, schedule: Q01DX001 (ip), vehicle: saline with Tween-80 86 % of control

Nc1ncnc2c1ncn2C1OC2COP(=O)(O)OC2C1OCc1ccccc1 (stereo not drawn)
inactive: endpoint: mean survival time, dose: 100.0 mg/kg/injection, schedule: Q01DX005 (ip), vehicle: saline 103 % of control | endpoint: mean survival time, dose: 200.0 mg/kg/injection, schedule: Q01DX005 (ip), vehicle: saline 94 % of control

N=c1sc2ccccc2n1CC(=O)O
inactive: [4] 100 % of control

Nn1nc2ccccc2n1
inactive: [1] 111 % of control | [2] 117 % of control | [3] 95 % of control

CCCC(C(=O)OCC)C1=NC(C)(C)CC(C)O1 (stereo not drawn)
inactive: endpoint: mean survival time, dose: 100.0 mg/kg/injection, schedule: Q04DX003 (ip), vehicle: acetone 100 % of control | endpoint: mean survival time, dose: 200.0 mg/kg/injection, schedule: Q04DX003 (ip), vehicle: acetone 102 % of control | endpoint: mean survival time, dose: 400.0 mg/kg/injection, schedule: Q04DX003 (ip), vehicle: acetone 94 % of control

CCOC(=O)C(C#N)C1CNP(=O)(N(CCCl)CCCl)OC1 (stereo not drawn)
inactive: endpoint: mean survival time, dose: 31.25 mg/kg/injection, schedule: Q01DX001 (ip), vehicle: DMSO 98 % of control | endpoint: mean survival time, dose: 62.5 mg/kg/injection, schedule: Q01DX001 (ip), vehicle: DMSO 98 % of control | endpoint: mean survival time, dose: 125.0 mg/kg/injection, schedule: Q01DX001 (ip), vehicle: DMSO 100 % of control | endpoint: mean survival time, dose: 250.0 mg/kg/injection, schedule: Q01DX001 (ip), vehicle: DMSO 100 % of control | endpoint: mean survival time, dose: 500.0 mg/kg/injection, schedule: Q01DX001 (ip), vehicle: DMSO 112 % of control | endpoint: mean survival time, dose: 1000.0 mg/kg/injection, schedule: Q01DX001 (ip), vehicle: DMSO 115 % of control

COc1cccc(CCN)c1
inactive: endpoint: mean survival time, dose: 18.75 mg/kg/injection, schedule: Q01DX009 (ip), vehicle: saline sonified 98 % of control | endpoint: mean survival time, dose: 37.5 mg/kg/injection, schedule: Q01DX009 (ip), vehicle: saline sonified 97 % of control | endpoint: mean survival time, dose: 37.5 mg/kg/injection, schedule: Q01DX009 (ip), vehicle: saline with Tween-80 108 % of control | endpoint: mean survival time, dose: 75.0 mg/kg/injection, schedule: Q01DX009 (ip), vehicle: saline sonified 97 % of control | endpoint: mean survival time, dose: 75.0 mg/kg/injection, schedule: Q01DX009 (ip), vehicle: saline with Tween-80 103 % of control

CN1C(=O)[N+](C)(C)N=C1[O-]
inactive: endpoint: mean survival time, dose: 100.0 mg/kg/injection, schedule: Q04DX003 (ip), vehicle: saline 94 % of control | endpoint: mean survival time, dose: 200.0 mg/kg/injection, schedule: Q04DX003 (ip), vehicle: saline 97 % of control | endpoint: mean survival time, dose: 400.0 mg/kg/injection, schedule: Q04DX003 (ip), vehicle: saline 95 % of control

COc1cc2c(c(OC)c1OC)-c1ccc(OC)c(=O)cc1[C@@H](N)CC2
inactive: endpoint: median survival time, dose: 1.5 mg/kg/injection, schedule: Q01DX009 (ip), vehicle: saline 120 % of control

COC(=O)C1(C)CCCC2(C)c3cc(OC)ccc3C=CC12 (stereo not drawn)
inactive: [5] 104 % of control | [7] 106 % of control | [8] 103 % of control

CCOC(=O)c1c(C)cc(C)cc1C
inactive: endpoint: mean survival time, dose: 50.0 mg/kg/injection, schedule: Q01DX001 (ip), vehicle: Klucel (hydroxypropylcellulose) (HPC) 99 % of control | endpoint: mean survival time, dose: 100.0 mg/kg/injection, schedule: Q01DX001 (ip), vehicle: Klucel (hydroxypropylcellulose) (HPC) 102 % of control | endpoint: mean survival time, dose: 200.0 mg/kg/injection, schedule: Q01DX001 (ip), vehicle: Klucel (hydroxypropylcellulose) (HPC) 96 % of control

NC(N)=NCc1ccccc1
inactive: endpoint: mean survival time, dose: 10.0 mg/kg/injection, schedule: Q04DX003 (ip), vehicle: saline 106 % of control | endpoint: mean survival time, dose: 12.5 mg/kg/injection, schedule: Q04DX003 (ip), vehicle: saline 100 % of control | endpoint: mean survival time, dose: 20.0 mg/kg/injection, schedule: Q04DX003 (ip), vehicle: saline 103 % of control | endpoint: mean survival time, dose: 25.0 mg/kg/injection, schedule: Q04DX003 (ip), vehicle: saline 96 % of control | endpoint: mean survival time, dose: 40.0 mg/kg/injection, schedule: Q04DX003 (ip), vehicle: saline 100 % of control | endpoint: mean survival time, dose: 50.0 mg/kg/injection, schedule: Q04DX003 (ip), vehicle: saline 97 % of control and 100 % of control

C/C(=C\c1ccc(Cl)c(Cl)c1)[N+](=O)[O-]
inactive: endpoint: mean survival time, dose: 100.0 mg/kg/injection, schedule: Q01DX001 (ip), vehicle: saline 104 % of control | endpoint: mean survival time, dose: 200.0 mg/kg/injection, schedule: Q01DX001 (ip), vehicle: saline 109 % of control | endpoint: mean survival time, dose: 400.0 mg/kg/injection, schedule: Q01DX001 (ip), vehicle: saline 111 % of control

CN(C)c1ccc(/C=C/c2ccc3ccccc3n2)c(F)c1
inactive: endpoint: mean survival time, dose: 100.0 mg/kg/injection, schedule: Q01DX009 (ip), vehicle: Klucel (hydroxypropylcellulose) (HPC) 100 % of control | endpoint: mean survival time, dose: 200.0 mg/kg/injection, schedule: Q01DX009 (ip), vehicle: Klucel (hydroxypropylcellulose) (HPC) 98 % of control | endpoint: mean survival time, dose: 400.0 mg/kg/injection, schedule: Q01DX009 (ip), vehicle: Klucel (hydroxypropylcellulose) (HPC) 89 % of control

CC(C)(C)C(=O)CC(=O)C(C)(C)C.CC(C)(C)C(=O)CC(=O)C(C)(C)C.CC(C)(C)C(=O)CC(=O)C(C)(C)C.[Fe]
inactive: [5] 98 % of control | [1] 100 % of control | [7] 97 % of control | [2] 96 % of control | [8] 95 % of control | [3] 91 % of control

O=C(O)/C=C/C(=O)NCc1ccccc1
inactive: [5] 104 % of control | [7] 94 % of control | [8] 98 % of control
